Drawing on patent US20110136801A1, “Novel Compounds” (Dainippon Sumitomo Pharma Co. Ltd., priority 2009, published 2011), this text covers EC50 for ten molecules.

This assay deals with T1, human TLR7 (Homo sapiens, UniProt Q9NYK1).
T1 construct: expressed in transfected cells; host or cells: HEK293 cell line stably expressing the pNiFty2-SEAP reporter plasmid; TLR7 in pUNO vector, blasticidin selection
T1 sequence (Q9NYK1 27-1049): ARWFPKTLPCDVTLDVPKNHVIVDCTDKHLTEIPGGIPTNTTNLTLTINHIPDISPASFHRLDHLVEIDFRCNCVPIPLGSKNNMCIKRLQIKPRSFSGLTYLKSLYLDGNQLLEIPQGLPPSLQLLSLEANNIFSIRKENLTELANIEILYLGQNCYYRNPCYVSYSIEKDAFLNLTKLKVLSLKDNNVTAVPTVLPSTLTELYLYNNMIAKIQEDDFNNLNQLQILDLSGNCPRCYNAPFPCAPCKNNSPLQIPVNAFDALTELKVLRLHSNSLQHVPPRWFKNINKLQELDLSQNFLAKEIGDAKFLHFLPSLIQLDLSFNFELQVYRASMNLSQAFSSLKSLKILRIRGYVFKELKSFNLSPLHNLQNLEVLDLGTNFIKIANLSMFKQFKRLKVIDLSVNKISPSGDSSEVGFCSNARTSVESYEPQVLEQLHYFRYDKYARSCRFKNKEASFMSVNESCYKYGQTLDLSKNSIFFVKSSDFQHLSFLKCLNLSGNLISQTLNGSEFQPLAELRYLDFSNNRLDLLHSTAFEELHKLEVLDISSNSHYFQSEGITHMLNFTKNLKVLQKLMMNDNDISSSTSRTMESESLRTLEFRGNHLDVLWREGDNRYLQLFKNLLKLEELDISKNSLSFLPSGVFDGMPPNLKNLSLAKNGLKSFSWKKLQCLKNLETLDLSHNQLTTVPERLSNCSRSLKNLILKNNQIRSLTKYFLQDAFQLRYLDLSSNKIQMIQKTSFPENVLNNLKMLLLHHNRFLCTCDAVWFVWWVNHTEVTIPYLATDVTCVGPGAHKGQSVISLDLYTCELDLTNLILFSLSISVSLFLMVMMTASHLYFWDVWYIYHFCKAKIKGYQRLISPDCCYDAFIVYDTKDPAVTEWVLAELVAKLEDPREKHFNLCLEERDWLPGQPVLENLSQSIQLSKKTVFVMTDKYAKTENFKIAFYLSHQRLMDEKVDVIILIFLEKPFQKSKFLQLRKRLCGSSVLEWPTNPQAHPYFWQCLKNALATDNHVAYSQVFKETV
As to the kind of experiment: Human TLR7 Assay (SEAP reporter in HEK293 cells).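 Note: Read-out is secreted alkaline phosphatase made under an NFkB/ELAM-1 composite promoter, reporting TLR7-triggered NFkB activation.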 The format is cell-based. As to conditions: HEK293 cell line expressing human TLR7 and pNiFty2-SEAP reporter, overnight incubation at 37° C., 0.1% DMSO; read-out: hTLR7 EC50.
Description: The most common variant sequence of human TLR7 (represented by the EMBL sequence AF240467) was cloned into the mammalian cell expression vector pUNO and transfected into a HEK293 cell line already stably expressing the pNiFty2-SEAP reporter plasmid; integration of the reporter gene was maintained by selection with the antibiotic zeocin. Transfectants with stable TLR7 expression were selected using the antibiotic blasticidin. In this reporter cell-line, expression of secreted alkaline phosphatase (SEAP) is controlled by an NFkB/ELAM-1 composite promoter comprising five NFkB sites combined with the proximal ELAM-1 promoter. TLR signaling leads to the translocation of NFkB and activation of the promoter results in expression of the SEAP gene. TLR7-specific activation was assessed by determining the level of SEAP produced following overnight incubation of the cells at 37° C. with the standard compound in the presence of 0.1% (v/v) dimethylsulfoxide (DMSO). Concentration dependent induction of SEAP production by compounds was expressed as the concentration of compound which produced half of the maximal level of SEAP induction for that compound (EC50).
The EC50 is the concentration that produces a half-maximal response. `CCN(CC)CC(=O)N(CCCn1c(CCOC)nc2c(N)nc3ccccc3c21)Cc1ccc(F)c(OCC(=O)OC)c1` [Example 120, Methyl 2-{5-[(N-{3-[4-amino-2-(2-methoxyethyl)-1H-imidazo[4,5-c]quinolin-1-yl]propyl}-2-{diethylamino}acetamido)methyl]-2-fluorophenoxy}acetate]: the EC50 was 278 nM. For the molecule `CCN(CC)CC(=O)N(CCCn1c(CCOC)nc2c(N)nc3ccccc3c21)Cc1cc(F)cc(OCC(=O)OC(C)C)c1` [Example 123, Isopropyl 2-{3-[(N-{3-[4-amino-2-(2-methoxyethyl)-1H-imidazo[4,5-c]quinolin-1-yl]propyl}-2-{diethylamino}acetamido)methyl]-5-fluorophenoxy}acetate], the EC50 stood at 50.2 nM.

With `CCOC(=O)COc1cc(F)cc(CN(CCCn2c(CCOC)nc3c(N)nc4ccccc4c32)C(=O)CN(CC)CC)c1` [Example 124, Ethyl 2-{3-[(N-{3-[4-amino-2-(2-methoxyethyl)-1H-imidazo[4,5-c]quinolin-1-yl]propyl}-2-{diethylamino}acetamido)methyl]-5-fluorophenoxy}acetate], the EC50 is 40.3 nM. In the case of `CCOC(=O)COc1ccc(CN(CCCCn2c(CCOC)nc3c(N)nc4ccccc4c32)C(=O)NCCN2CCCCC2)cc1` [Example 125, Ethyl 2-{4-[(1-{4-[4-amino-2-(2-methoxyethyl)-1H-imidazo[4,5-c]quinolin-1-yl]butyl}-3-{2-(piperidin-1-yl)ethyl}ureido)methyl]phenoxy}acetate] it was 11.2 nM; in that of `CCOC(=O)COc1cccc(CN(CCCCn2c(CCOC)nc3c(N)nc4ccccc4c32)C(=O)NCCN2CCCCC2)c1` [Example 126, Ethyl 2-{3-[(1-{4-[4-amino-2-(2-methoxyethyl)-1H-imidazo[4,5-c]quinolin-1-yl]butyl}-3-{2-(piperidin-1-yl)ethyl}ureido)methyl]phenoxy}acetate], 47 nM. In the case of `CCOC(=O)COc1cccc(CN(CCCCn2c(CCOC)nc3c(N)nc4ccccc4c32)C(=O)NCCN(C)C)c1` [Example 127, Ethyl 2-{3-[(1-{4-[4-amino-2-(2-methoxyethyl)-1H-imidazo[4,5-c]quinolin-1-yl]butyl}-3-{2-(dimethylamino)ethyl}ureido)methyl]phenoxy}acetate] it was 42.9 nM; in that of `CCOC(=O)COc1cccc(CN(CCCCn2c(CCOC)nc3c(N)nc4ccccc4c32)C(=O)NCCCN2CCCCC2)c1` [Example 128, Ethyl 2-{3-[(1-{4-[4-amino-2-(2-methoxyethyl)-1H-imidazo[4,5-c]quinolin-1-yl]butyl}-3-{3-(piperidin-1-yl)propyl}ureido)methyl]phenoxy}acetate], 130 nM; in that of `CCOC(=O)COc1cccc(CN(CCCCn2c(CCOC)nc3c(N)nc4ccccc4c32)C(=O)NCCCN(C)C)c1` [Example 129, Ethyl 2-{3-[(1-{4-[4-amino-2-(2-methoxyethyl)-1H-imidazo[4,5-c]quinolin-1-yl]butyl}-3-{3-(dimethylamino)propyl}ureido)methyl]phenoxy}acetate], 204 nM. Regarding `CCOC(=O)COc1cccc(CN(CCN2CCCCC2)C(=O)NCCCCn2c(CCOC)nc3c(N)nc4ccccc4c32)c1` [Example 130, Ethyl 2-{3-[(3-{4-[4-amino-2-(2-methoxyethyl)-1H-imidazo[4,5-c]quinolin-1-yl]butyl}-1-{2-(piperidin-1-yl)ethyl}ureido)methyl]phenoxy}acetate], the EC50 was determined as 24.4 nM. For `CCOC(=O)COc1ccc(CN(CCN2CCCCC2)C(=O)NCCCCn2c(CCOC)nc3c(N)nc4ccccc4c32)cc1` [Example 131, Ethyl 2-{4-[(3-{4-[4-amino-2-(2-methoxyethyl)-1H-imidazo[4,5-c]quinolin-1-yl]butyl}-1-{2-(piperidin-1-yl)ethyl}ureido)methyl]phenoxy}acetate], the EC50 came out at 37.5 nM.
